Experiments:
[1] = test system: calreticulin (ecto-CRT); experiment: Immunogenic cell death analysis: calreticulin on the surface of tumor cells by flow cytometry; type: cell-based; details: compared to the control
Description: Calreticulin is one of the most important molecules in the immunogenic cell death process. When the calreticulin appears on membranes of tumor cell, a strong signal for phagocytotic cells including dendritic cells may be generated to cause the phagocytotic cells to attack dying tumor cells. This is the most significant “eat me” signal for immune cells. Whether or not immunogenic cell death was induced by the anticancer agents used in the present invention was assessed through the quantitative change of calreticulin expressed on the surface of cancer cells after the treatment with the anticancer agents. Single cells isolated from the tumor were incubated with anti-calreticulin antibody (ratio of 1:50) as a primary antibody at 4° C. for 30 minutes, and then washed 2 times with PBS.

[2] = test system: RENCA; experiment: Tumor growth inhibition, animal model for renal cancer (RENCA); type: in vivo, BALB/c mice; details: Dunnione 40 mg/kg oral every day from 7th day
Description: (§1) All mice used in the experiments were raised in a sterile animal room with constant temperature (22° C. to 26° C.) and constant humidity (55% to 60%), acclimatized for 1 week while sufficiently supplying typical solid feed (Samtako Inc., Korea) and water, and then used. All experiments were conducted after obtaining approval from the Institutional Animal Care and Use Committee in accordance with the laboratory animal care and ethics regulations of the Institutional Animal Care and Use Committee of Wonkwang University.
(§2) 7-week-old BALB/c or C57BL/6 mice were used, and subcutaneously inoculated using a 1-mL insulin syringe within 30 minutes after mixing the mouse cancer cells with 0.2 mL of PBS.
(§3) After the cancer cell line was subcutaneously implanted, the administration of drugs was started when the size of the cancer reached 50 to 100 mm^3. The volumes (mm^3) of the tumors, which were generated after the inoculation, were measured at intervals of 3 days using a caliper, calculation was performed using the formula of […], and then the results thereof were compared.
(§4) In addition, sole administration or co-administration of respective drugs was performed according to the administration schedules listed in Tables 4 to 34 below, the tumor volumes were then measured according to the tumor proliferation assessment method described in Example 1.1, the tumor growth inhibition rates (TGI (O)=(Vc−Vt)/Vc×100(%); Vc: tumor volume of control, Vt tumor volume of experimental group) were calculated based the tumor volumes, and the results thereof are shown in the respective tables and FIGS. 1 to 31.

[3] = test system: B16F10; experiment: Tumor growth inhibition, animal model for skin cancer (B16F10); type: in vivo,  mice; details: Experimental Example 26; Dunnione 40 mg/kg oral every day from 8th day; Everolimus 0.5 mg/kg oral every day from 8th day
Description: as §1, §2, §3, §4

[4] = test system: 4T1; experiment: Tumor growth inhibition, animal model for breast cancer I (4T1); type: in vivo, BALB/c mice; details: Experimental Example 10; Dunnione 40 mg/kg oral every day from 5th day; Anti-CTLA4 antibody 200 μg/head i.p. at intervals of 3 days from 5th day, 4 times; Mitoxantrone 6 mg/kg i.p. once on 5th day
Description: as §1, §2, §3, §4

[5] = test system: MC38; experiment: Tumor growth inhibition, animal model for colorectal cancer I (MC38); type: in vivo, C57BL/6 mice; details: Experimental Example 4; Dunnione 40 mg/kg oral every day from 7th day; Anti-LAG3 antibody 200 μg/head i.p. on 7th, 10th, 14th, 17th days; Oxaliplatin 6 mg/kg i.p. on 7th and 14th days
Description: as §1, §2, §3, §4

CCN1CCN(Cc2ccc(Nc3ncc(F)c(-c4cc(F)c5nc(C)n(C(C)C)c5c4)n3)nc2)CC1 [Abemaciclib]
Expression rate (%) of calreticulin on cell surface ([1]; Breast cancer, EMT6): 263%

COc1cccc2c1C(=O)c1c(O)c3c(c(O)c1C2=O)C[C@@](O)(C(=O)CO)C[C@@H]3O[C@H]1C[C@H](N)[C@H](O)[C@H](C)O1 [Adriamycin]
Expression rate (%) of calreticulin on cell surface ([1]; Breast cancer, 4T1): 307%

CO[C@H]1C[C@@H]2CC[C@@H](C)[C@@](O)(O2)C(=O)C(=O)N2CCCC[C@H]2C(=O)O[C@H]([C@H](C)C[C@@H]2CC[C@@H](OCCO)[C@H](OC)C2)CC(=O)[C@H](C)/C=C(\C)[C@@H](O)[C@@H](OC)C(=O)[C@H](C)C[C@H](C)/C=C/C=C/C=C/1C [Everolimus, reference compound]
Expression rate (%) of calreticulin on cell surface ([1]; Liver cancer, Hapa1-6): 892%
Expression rate (%) of calreticulin on cell surface ([1]; Renal cancer, RENCA): 134%
Expression rate (%) of calreticulin on cell surface ([1]; Skin cancer (melanoma), B16F10): 216%
TGI (%) ([2]; Experimental Example 15, Anti-CTLA4 antibody 200 μg/head i.p. at intervals of 3 days from 7th day, 7 times, Everolimus 250 μg/kg oral every day from 7th day): 72.8%
TGI (%) [3]: 28.5%

O=C1c2c(O)ccc(O)c2C(=O)c2c(NCCNCCO)ccc(NCCNCCO)c21 [Mitoxantrone, reference compound]
Expression rate (%) of calreticulin on cell surface ([1]; Breast cancer, 4T1): 385%
TGI (%) [4]: 16.3%

O=C1[O][Pt]2([NH][C@@H]3CCCC[C@H]3[NH]2)[O]C1=O [Oxaliplatin, reference compound]
TGI (%) [5]: 5.6%

CC(=O)O[C@H]1C(=O)[C@@]2(C)[C@H]([C@H](OC(=O)c3ccccc3)[C@]3(O)C[C@H](OC(=O)[C@H](O)[C@@H](NC(=O)c4ccccc4)c4ccccc4)C(C)=C1C3(C)C)[C@]1(OC(C)=O)CO[C@@H]1C[C@@H]2O [Paclitaxel]
Expression rate (%) of calreticulin on cell surface ([1]; Skin cancer (melanoma), B16F10): 186%

CNC(=O)c1cc(Oc2ccc(NC(=O)Nc3ccc(Cl)c(C(F)(F)F)c3)c(F)c2)ccn1 [Regorafenib]
Expression rate (%) of calreticulin on cell surface ([1]; Colorectal cancer, MC38): 134%
Expression rate (%) of calreticulin on cell surface ([1]; Skin cancer (melanoma), B16F10): 166%

CNC(=O)c1cc(Oc2ccc(NC(=O)Nc3ccc(Cl)c(C(F)(F)F)c3)cc2)ccn1 [Sorafenib, reference compound]
Expression rate (%) of calreticulin on cell surface ([1]; Liver cancer, Hapa1-6): 435%
TGI (%) ([2]; Experimental Example 16, Sorafenib 10 mg/kg oral every day from 7th day): 29.4%

CNC(=O)c1cccc(-c2ccc3c(N4CCOC[C@@H]4C)nc(N4CCOC[C@@H]4C)nc3n2)c1 [Vistusertib]
Expression rate (%) of calreticulin on cell surface ([1]; Colorectal cancer, MC38): 175%
Expression rate (%) of calreticulin on cell surface ([1]; Renal cancer, RENCA): 341%
Expression rate (%) of calreticulin on cell surface ([1]; Skin cancer (melanoma), B16F10): 145%

Reference: US20230255904A1, “PHARMACEUTICAL COMPOSITION FOR PREVENTING OR TREATING CANCER COMPRISING NAPHTHOQUINONE-BASED COMPOUND AND IMMUNE CHECKPOINT INHIBITOR AS ACTIVE INGREDIENTS” (NADIANBIO LTD., priority 2020, published 2023)
